# Entries after “also recorded” stand apart in the source; their conditions may differ.
# What was measured:
# hLAIR-1 [1] = biological target: T1, hLAIR-1 (Homo sapiens, UniProt Q6GTX8); experiment: Inhibition of CD3 signaling in hLAIR-1a transfected 2B4 NFAT-GFP reporter cells; type: cell-based; parameters: expressed in transfected cells; host or cells: Mouse 2B4 NFAT-GFP reporter T cell hybridoma; settings: for inhibition of CD3-induced activation of hLAIR-1 transfected reporter cells: low peptide concentration 1.1 μg/ml; for inhibition of CD3-induced activation of hLAIR-1 transfected reporter cells (in words): plate-bound peptide 10, 3.3, 1.1, 0.37 μg/ml; for inhibitory capacity at low peptide concentration (in words): 1.1 μg/ml
# T1 sequence (Q6GTX8 22-287): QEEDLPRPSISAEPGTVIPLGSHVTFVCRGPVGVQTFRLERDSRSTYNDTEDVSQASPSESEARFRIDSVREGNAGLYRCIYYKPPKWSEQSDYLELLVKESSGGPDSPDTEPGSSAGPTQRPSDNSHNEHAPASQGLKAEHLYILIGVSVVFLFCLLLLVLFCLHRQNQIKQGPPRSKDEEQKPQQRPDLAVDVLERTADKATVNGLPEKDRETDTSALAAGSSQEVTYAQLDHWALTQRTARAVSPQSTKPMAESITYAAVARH
# Description: For detection of inhibition of mouse CD3 signaling: 2B4 T cell hybridoma cells stably transduced with an NFAT-GFP reporter and hLAIR-1a were generated. 1.25 μg/ml anti-mouse CD3 (PharMingen, San Diego, Calif.) was coated overnight at 4° C. in 96-well MAXIsorp flat-bottom plates (Nunc) together with an indicated amount of synthetic trimeric peptides in a total volume of 100 μl/well. The next day, plates were washed and 200 μl of 2.5×10^5 reporter cells/ml in medium were added to each well, and plates were incubated at 37° C. for 22 hrs and then analyzed for GFP expression by flow cytometry on a FACSCalibur (BD Biosciences). Typically, ˜90 percent of the reporters expressed GFP upon CD3 stimulation.
# hLAIR-1-CD3ζ chimera = biological target: T2, hLAIR-1-CD3ζ chimera (Homo sapiens, UniProt Q6GTX8); experiment: 2B4 NFAT-GFP reporter cell assay, hLAIR-1-CD3ζ chimera; type: cell-based; settings: for most potent hLAIR-1 activators in order of strength: order: III-30, II-56, II-30, III-38, II-42, III-51; for functional triggering of hLAIR-1-CD3ζ (GFP expression, in words): plate-bound ligand
# T2 construct: a chimeric protein consisting of the extracellular domain of hLAIR-1 fused to the transmembrane and intracellular domain of CD3ζ; expressed in transfected cells; host or cells: Mouse 2B4 NFAT-GFP reporter T cell hybridoma, pMX puro retroviral vector
# T2 sequence (Q6GTX8 22-165 limits assumed): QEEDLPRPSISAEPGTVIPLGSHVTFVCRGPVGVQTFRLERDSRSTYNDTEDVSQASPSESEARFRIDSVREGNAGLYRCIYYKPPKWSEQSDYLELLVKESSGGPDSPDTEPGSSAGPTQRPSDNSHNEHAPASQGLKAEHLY
# Description: For detection of LAIR-1 ligands: 2B4 T cell hybridoma cells stably transduced with an NFAT-GFP reporter and hLAIR-1-CD3ζ were analyzed as described (11).
# 2B4 T cell hybridoma cells were stably transduced with an NFAT-GFP reporter construct(40) and hLAIR-1-CD3ζ(15) and analyzed as described(15, 40).
# hLAIR-1 [2] = biological target: T1, hLAIR-1; experiment: FcεRI-induced degranulation assay, hLAIR-1 transfected RBL-2H3 cells; type: cell-based; parameters: expressed in transfected cells; settings: plate-bound together with TNP-BSA 0.8 μg/ml
# Description: 96-well MAXIsorp flat-bottom plates (Nunc) were coated overnight at 4° C. with BSA, or TNP conjugated to BSA (0.8 μg/ml) and indicated amounts of synthetic trimeric peptides (100 μl/well, 2 mM acetic acid in PBS). Meanwhile, untransfected or hLAIR-1a transfected RBL-2H3 (23) cells were sensitized with IgE anti-TNP mAbs at 4° C. for 30 minutes and subsequently washed for three times in medium (AIM-V; Gibco-BRL). After washings of the plates, 5.0×10^5 cells in 70 μl medium were added to each well, and plates were incubated at 37° C. for 1 hour. Subsequently, cultures were transferred to PCR tubes, centrifuged and the supernatants were assayed for β-glucuronidase activity as described (23).
# [3] = system: parental 2B4 NFAT-GFP reporter T cell hybridoma cells; experiment: Inhibition of CD3 signaling in parental (untransfected) 2B4 NFAT-GFP reporter cells; type: cell-based, Mouse; settings: for inhibition of CD3-induced activation of parental reporter cells: high peptide concentrations
# LAIR-2 fusion protein = biological target: T3, LAIR-2 fusion protein (Homo sapiens, UniProt Q6ISS4); experiment: BIAcore binding of LAIR-2 fusion protein to immobilized trimeric peptides; settings: 5 μl/min, ~250 RU peptide
# T3 construct: chimeric proteins of the extracellular domain of hLAIR-1 or LAIR-2 fused to the Fc region of human IgG1 were prepared; made in house
# T3 sequence (Q6ISS4 22-152): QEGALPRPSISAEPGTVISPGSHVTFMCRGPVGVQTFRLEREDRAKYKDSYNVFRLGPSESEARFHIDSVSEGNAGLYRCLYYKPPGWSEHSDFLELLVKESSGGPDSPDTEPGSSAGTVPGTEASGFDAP
# Description: (§1) Surface plasmon resonance (BIAcore) binding studies were performed using a BIAcore2000 system (BIAcore AB, Uppsala, Sweden). Approximately 2000-3000 response units (RU) of acid-soluble human collagen type I or III (Sigma) were immobilized on a CM5 biosensor chip using the amine coupling kit as instructed by the supplier. Immobilized triple-helical peptides composed of GCO(GPO)10GCOG-NH2 ((GPO)10, also known as collagen-related peptide, CRP^6) and GCP(GPP)10GCPG-NH2 ((GPP)10) were described previously^6. Approximately 250 RU (GPP)10 or (GPO)10 peptide trimers were immobilized using a cysteine coupling kit according manufacturers instructions. Analysis was performed in buffer (125 mM NaCl, 2.5 mM CaCl2, 0.005% (v/v) Tween 20, and 25 mM Hepes, (pH 7.4)) at 25° C. at a flow rate of 20 μl/min for collagen I and III interaction-studies and 5 μl/min for the immobilized peptides. […] Increasing concentrations of hLAIR-1-IgG were injected and allowed to reach an equilibrium plateau for 10 minutes. The delay between injections was 13 min, during which time the biosensor chip was flushed with buffer. In case of peptide-binding studies, biosensor chips were regenerated by injection of 0.1 M H3PO4 (2 min, 5 μl/min).
# The surface plasmon resonance binding studies were performed as described before(15). LAIR-2-IgG dimer concentration was calculated based on a theoretical mass of 82.5 kDa.
# hLAIR-1-IgG = biological target: T4, hLAIR-1-IgG (Homo sapiens, UniProt Q6GTX8); experiment: BIAcore binding of hLAIR-1-IgG to immobilized triple-helical peptides; settings: hLAIR-1-IgG 780 nM, 5 μl/min, ~250 RU peptide
# T4 construct: chimeric proteins of the extracellular domain of hLAIR-1 or LAIR-2 fused to the Fc region of human IgG1 were prepared; made in house
# T4 sequence (Q6GTX8 22-165 limits assumed): T2 sequence (Q6GTX8 22-165 limits assumed)
# Description: as §1
inhibition of CD3-induced activation of hLAIR-1 transfected reporter cells (in words) (hLAIR-1 [1]),most potent hLAIR-1 activators in order of strength (hLAIR-1-CD3ζ chimera),inhibition of FcεRI-induced degranulation (β-glucuronidase release) (hLAIR-1 [2]),Substance,further results
efficiently inhibiting,most potent hLAIR-1 activators,,GPC(GPP)5-GTOGTDGPKGASGPAGPOGAQGPOGLQ-(GPP)5GPC-NH2 [II-30],inhibition of CD3-induced activation of hLAIR-1 transfected reporter cells (hLAIR-1 [1]): ~60%
did not induce inhibition,,,GPC(GPP)5-GPAGEOGREGSOGADGPOGRDGAAGVK-(GPP)5GPC-NH2 [II-47],
efficiently inhibiting,most potent hLAIR-1 activators,,GPC(GPP)5-GEGGPOGVAGPOGGSGPAGPOGPQGVK-(GPP)5GPC-NH2 [III-38],inhibition of CD3-induced activation of hLAIR-1 transfected reporter cells (hLAIR-1 [1]): ~60%
,,,GPC(GPP)5-GMOGERGGLGSOGPKGDKGEOGGOGAD-(GPP)5GPC-NH2 [III-32],"functional triggering of hLAIR-1-CD3ζ (GFP expression, in words) (hLAIR-1-CD3ζ chimera): potent LAIR-1 binders and activators"
efficiently inhibiting,most potent hLAIR-1 activators,potent inhibitors,GPC(GPP)5-GPRGRSGETGPAGPOGNOGPOGPOGPO-(GPP)5GPC-NH2 [II-56],inhibitory capacity at low peptide concentration (in words) (hLAIR-1 [1]): full inhibitory capacity; also recorded: full inhibitory potential; inhibition of CD3-induced activation of parental reporter cells [3]: ~30%
,most potent hLAIR-1 activators,,GPC(GPP)5-GRAGEOGLQGPAGPOGEKGEOGDDGPS-(GPP)5GPC-NH2 [II-42],
efficiently inhibiting,most potent hLAIR-1 activators,potent inhibitors,GPC(GPP)5-GAOGLRGGAGPOGPEGGKGAAGPOGPO-(GPP)5GPC-NH2 [III-30],inhibitory capacity at low peptide concentration (in words) (hLAIR-1 [1]): full inhibitory capacity; inhibition of CD3-induced activation of parental reporter cells [3]: ~30%
did not inhibit,,not,GCP(GPP)10GCPG-NH2 [reference compound],interaction of LAIR-2 with immobilized trimeric peptide (LAIR-2 fusion protein): not; inhibition of CD3-induced activation of parental reporter cells (in words) [3]: did not inhibit; binding of hLAIR-1-IgG to immobilized peptide (hLAIR-1-IgG): did not
,most potent hLAIR-1 activators,,GPC(GPP)5-GPAGPAGAOGPAGSRGAOGPQGPRGDK-(GPP)5GPC-NH2 [III-51],"functional triggering of hLAIR-1-CD3ζ (GFP expression, in words) (hLAIR-1-CD3ζ chimera): potent LAIR-1 binders and activators"
